A short description of the assay: Inhibition of rat human chimera TRPV1 channel expressed in CHO cells. In kind it is cell-based.
Regarding `CC(C)(C)c1ccc(/C=C(/C(=O)Nc2ccc3c(c2)OCCO3)C2CCCC2)cc1`, the IC50 – broadly, the concentration that inhibits the measured activity by half – came out at 15.4 µM and the pIC50 (as a rule, −log10 of the IC50, conventionally taken in molar units) is 4.81.

`Cc1nc(C(F)(F)F)ccc1/C=C/C(=O)Nc1ccc2c(c1)OCCO2` returned an IC50 of 1.11 µM and a pIC50 of 5.95.

For `CC(C)(C)c1ccc(/C=C/C(=O)Nc2ccc3c(c2)OCCN3)cc1`, the IC50 is 0.026 µM.

In turn, `CC(C)(C)c1ccc(CCC(=O)Nc2ccc3c(c2)OCCO3)cc1` showed an IC50 of 0.226 µM and a pIC50 of 6.65.

As to `O=C(/C=C/c1ccc(C(F)(F)F)cc1)Nc1ccc2c(c1)OCCO2`, half-maximal inhibition (IC50) required 0.12 µM and the pIC50 is 6.92.

The compound `CC(C)(C)c1ccc(/C=C/CNc2ccc3c(c2)OCCO3)cc1` registered an IC50 of more than 40 µM and a pIC50 of 4.4.

For the compound `O=C(/C=C/c1ccc(Cl)cc1)Nc1cccc(Cl)c1`, it took 0.993 µM to reach half-maximal inhibition (IC50) and the pIC50 was found to be 6.

Compound `CC(C)(C)c1ccc(/C(=C\C(=O)Nc2ccc3c(c2)OCCO3)c2cccc(N)c2)cc1` gave an IC50 of 0.331 µM and a pIC50 of 6.48.

`CC(C)(C)c1ccc(/C=C/C(=O)Nc2ccc3c(c2)OC[C@@H](COCC2CC2)O3)cc1`: the IC50 was determined as 0.329 µM and the pIC50 is 6.48.

`CCC/C(=C\C(=O)Nc1ccc2c(c1)OCCO2)c1ccc(C(C)(C)C)cc1` had an IC50 of 0.12 µM and a pIC50 of 6.92.

For `CC(C)(C)c1ccc(/C=C/C(=O)Nc2ccc3oc(=O)cnc3c2)cc1`, 0.018 µM corresponded to half-maximal inhibition (IC50). That is a double-digit nanomolar value.

`O=C(/C=C/c1ccc(C(F)(F)F)nc1N1CCCCC1)Nc1ccc2cccnc2c1`: the IC50 came out at 0.001 µM and the pIC50 came to 8.94.

`O=C(/C=C/c1ccc(C(F)(F)F)nc1)Nc1ccc2c(c1)OCCO2` showed an IC50 of 1.07 µM and a pIC50 of 5.97.

With `CC(C)(C)c1ccc(/C=C/C(=O)Nc2ccc3c(c2)OCCO3)cn1`, the IC50 was 0.183 µM and the pIC50 worked out at 6.74.

As to `CC(C)(C)c1ccc(/C=C/C(=O)Nc2ccc3c(c2)O[C@H](CO)CO3)cc1`, the IC50 was found to be 0.216 µM and the pIC50 is 6.66.

The compound `O=C(/C=C/c1ccc(Cl)c(Cl)c1)Nc1ccc2c(c1)OCCO2` showed an IC50 of 0.449 µM and a pIC50 of 6.35.

In turn, `CC(C)(C)c1ccc(/C=C/C(=O)Nc2ccc3c(c2)OC[C@H](CO)O3)cc1` gave an IC50 of 0.024 µM and a pIC50 of 7.62.

In turn, `CC(C)(C)c1ccc(/C=C/C(=O)Nc2ccc3c(c2)OCC(=O)N3)cc1` yielded an IC50 of 0.391 µM.

Compound `CCC(C)/C(=C\c1ccc(C(C)(C)C)cc1)C(=O)Nc1ccc2c(c1)OCCO2` (centres undefined) had a half-maximal inhibitory concentration (IC50) of 0.545 µM and a pIC50 of 6.26.

In turn, `CC(C)(C)c1ccc(/C=C\C(=O)Nc2ccc3c(c2)OCCO3)cc1` showed an IC50 of 1.9 µM and a pIC50 of 5.72.

Take `COc1ccc(NC(=O)/C=C/c2ccc(C(C)(C)C)cc2)cc1OC`: the IC50 turned out to be 0.23 µM and the pIC50 is 6.64.

The compound `Cc1ccccc1/C(=C/C(=O)Nc1ccc2c(c1)OCCO2)c1ccc(C(C)(C)C)cc1` came in with an IC50 of 0.279 µM and a pIC50 of 6.55.

On to `CC(C)(C)c1ccc(/C(=C/C(=O)Nc2ccc3c(c2)OCCO3)c2ccc(C(F)(F)F)cc2)cc1`, for which it took 0.047 µM to reach half-maximal inhibition (IC50) and the pIC50 is given as 7.33.

For the compound `CC(C)(C)c1ccc(/C=C/C(=O)Nc2ccc3ccc(=O)[nH]c3c2)cc1`, half-maximal inhibition (IC50) was put at 0.004 µM.

As to `CC(C)(C)c1ccc(/C(=C/C(=O)Nc2ccc3c(c2)OCCO3)c2cccnc2)cc1`, 0.144 µM corresponded to half-maximal inhibition (IC50) and the pIC50 worked out at 6.84.

In the case of `CC(C)(C)c1ccc(/C=C/C(=O)Nc2ccc3c(c2)OCCO3)cc1` (stereo in doubt; 91), it took 0.136 µM to reach half-maximal inhibition (IC50) and the pIC50 was found to be 6.87.

Compound `CN(C)c1ccc(/C=C/C(=O)Nc2ccc3c(c2)OCCO3)cc1` had an IC50 of 1.32 µM and a pIC50 of 5.88.

Regarding `Cc1ccc(/C=C/C(=O)Nc2ccc3c(c2)OCCO3)cc1`, half-maximal inhibition (IC50) required 0.293 µM and the pIC50 turned out to be 6.53.

The compound `CC(C)(C)c1ccc(/C=C/C(=O)Nc2ccc3c(c2)OCCO3)cc1.Cl` returned an IC50 of 0.55 µM and a pIC50 of 6.26.

For the compound `CC(C)(C)c1ccc(/C=C/C(=O)Oc2ccc3c(c2)OCCO3)cc1`, the IC50 worked out at 0.868 µM and the pIC50 is 6.06.

`COc1ccccc1/C(=C/C(=O)Nc1ccc2c(c1)OCCO2)c1ccc(C(C)(C)C)cc1` displayed an IC50 of 0.153 µM and a pIC50 of 6.82.

In the case of `CC(C)(C)c1ccc(C(=O)CC(=O)Nc2ccc3c(c2)OCCO3)cc1`, it took 0.582 µM to reach half-maximal inhibition (IC50) and the pIC50 is 6.23.

With `O=C(/C=C/c1ccc2ccccc2c1)Nc1ccc2c(c1)OCCO2`, half-maximal inhibition (IC50) required 0.74 µM and the pIC50 was determined as 6.13.

Consider `CC(C)(C)c1ccc(/C=C/C(=O)Nc2ccc3c(c2)OCCO3)cc1` (stereo in doubt; 1), for which it took 0.023 µM to reach half-maximal inhibition (IC50) and the pIC50 stood at 7.59.

Take `CCCCc1ccc(/C=C/C(=O)Nc2ccc3c(c2)OCCO3)cc1`: half-maximal inhibition (IC50) was put at 0.312 µM and the pIC50 is listed as 6.51.

Turning to `CC(C)c1ccc(/C=C/C(=O)Nc2ccc3c(c2)OCCO3)cc1`, the midpoint of inhibition, the IC50, lay at 0.098 µM and the pIC50 was found to be 7.01.

`O=C(/C=C/c1cccc(Br)c1)Nc1ccc2c(c1)OCCO2` came in with an IC50 of 0.404 µM and a pIC50 of 6.39.

Compound `O=C(/C=C/c1ccc(C(F)(F)F)cc1Br)Nc1ccc2c(c1)OCCO2` had an IC50 of 0.453 µM and a pIC50 of 6.34.

`C=Cc1ccc(/C=C/C(=O)Nc2ccc3c(c2)OCCO3)cc1`: half-maximal inhibition (IC50) required 3.52 µM and the pIC50 came out at 5.45.

In turn, `CC(C)(C)c1ccc(/C(=C/C(=O)Nc2ccc3c(c2)OCCO3)c2ccncc2)cc1` had an IC50 of 0.119 µM and a pIC50 of 6.92.

On to `CC(C)(C)c1ccc(/C=C(/C(=O)Nc2ccc3c(c2)OCCO3)c2ccccc2)cc1`, for which the IC50 was determined as 10.7 µM and the pIC50 is 4.97.

Turning to `O=C(/C=C/c1ccc(C(F)(F)F)c(F)c1)Nc1ccc2c(c1)OCCO2`, the half-maximal inhibitory concentration (IC50) stood at 0.129 µM and the pIC50 stood at 6.89.

On to `COc1ccc(/C(=C/C(=O)Nc2ccc3c(c2)OCCO3)c2ccc(C(C)(C)C)cc2)cc1`, for which the IC50 turned out to be 0.046 µM and the pIC50 worked out at 7.34.

Consider `O=C(/C=C/c1ccc(F)c(F)c1)Nc1ccc2c(c1)OCCO2`, for which the midpoint of inhibition, the IC50, lay at 1.31 µM and the pIC50 is listed as 5.88.

In turn, `O=C(/C=C/c1cccc(OC(F)(F)F)c1)Nc1ccc2c(c1)OCCO2` showed an IC50 of 1.62 µM and a pIC50 of 6.79.

`CC(C)(C)c1ccc(/C=C/C(=O)Nc2ccc3c(c2)OCCO3)c(C2CCCC2)c1` gave an IC50 of 0.006 µM and a negative logarithm of the IC50 (pIC50) of 8.21.

Take `O=C(/C=C/c1ccc(F)cc1F)Nc1ccc2c(c1)OCCO2`: the IC50 came out at 3.6 µM and the pIC50 came to 5.44.

In turn, `CC(C)(C)c1ccc(C(=CC(=O)Nc2ccc3c(c2)OCCO3)c2ccc(C(C)(C)C)cc2)cc1` yielded an IC50 of 2.51 µM and a pIC50 of 5.6.

Compound `O=C(/C=C/c1ccc(F)cc1)Nc1ccc2c(c1)OCCO2` returned an IC50 of 1.47 µM and a pIC50 of 5.83.

Consider `CC(C)(C)c1ccc(/C(I)=C/C(=O)Nc2ccc3c(c2)OCCO3)cc1`, for which half-maximal inhibition (IC50) required 0.343 µM and the pIC50 stood at 6.46.

Compound `CC(C)(C)c1ccc(/C(=C/C(=O)Nc2ccc3c(c2)OCCO3)Cc2ccccc2)cc1` showed an IC50 of 0.021 µM and a pIC50 of 7.69.

In the case of `CC(C)(C)c1ccc(/C=C/C(=O)Nc2ccc3c(c2)CCCC3)cc1`, the midpoint of inhibition, the IC50, lay at 0.102 µM.

Consider `O=C(/C=C/c1ccc(C(F)(F)F)nc1N1CCOCC1)Nc1ccc2cccnc2c1`, for which the half-inhibitory concentration (IC50) came to 0.002 µM and the pIC50 is on record as 8.78.

As for `COC[C@@H]1COc2cc(NC(=O)/C=C/c3ccc(C(C)(C)C)cc3)ccc2O1`, inhibition was half-maximal at 1.02 µM (IC50) and the pIC50 amounted to 5.99.

In the case of `CN(C)C[C@@H]1COc2cc(NC(=O)/C=C/c3ccc(C(C)(C)C)cc3)ccc2O1`, the midpoint of inhibition, the IC50, lay at 0.665 µM and the pIC50 is on record as 6.18.

For `CC(C)Cc1ccc(/C=C/C(=O)Nc2ccc3c(c2)OCCO3)cc1`, the IC50 was 1.01 µM and the pIC50 is on record as 5.99.

`COc1ccc(/C=C/C(=O)Nc2ccc3c(c2)OCCO3)cc1`: it took 1.87 µM to reach half-maximal inhibition (IC50) and the pIC50 is 5.73.

For `O=C(/C=C/c1ccc(C2CC2)cc1)Nc1ccc2c(c1)OCCO2`, the IC50 stood at 0.419 µM and the pIC50 was 6.38.

Regarding `CC(C)(C)c1ccc(/C=C/C(=O)Nc2cccc(C(N)=O)c2)cc1`, inhibition was half-maximal at 0.033 µM (IC50) and the pIC50 is recorded as 7.48.

The compound `O=C(/C=C/c1ccccc1)Nc1ccc2c(c1)OCCO2` came in with an IC50 of 5.1 µM and a pIC50 of 5.29.

Compound `CC(C)(C)c1ccc(/C=C/C(=O)Nc2ccc3c(c2)NCCC3)cc1` showed an IC50 of 0.055 µM. This counts as double-digit nanomolar.

The compound `CC(C)(C)c1ccc(/C=C/C(=O)Nc2ccc3c(c2)OCCO3)c(Br)c1` had a half-maximal inhibitory concentration (IC50) of 0.157 µM and a pIC50 of 6.8.

Regarding `COc1cc(/C=C/C(=O)Nc2ccc3c(c2)OCCO3)cc(OC)c1OC`, the IC50 was more than 40 µM and the pIC50 came to 4.4.

Compound `COc1cccc(NC(=O)/C=C/c2ccc(C(C)(C)C)cc2)c1` displayed an IC50 of 0.057 µM and a pIC50 of 7.24.

As to `O=C(/C=C/c1cccc(C(F)(F)F)c1)Nc1ccc2c(c1)OCCO2`, the IC50 turned out to be 1.21 µM and the pIC50 was determined as 5.92.

The compound `CC(C)(C)c1ccc(/C=C/C(=O)Nc2ccc3c(c2)OC[C@@H](CNCO)O3)cc1` displayed an IC50 of 0.69 µM and a negative-log IC50 (pIC50) of 6.16.

For `O=C(/C=C/c1ccc(-c2ccccc2)cc1)Nc1ccc2c(c1)OCCO2`, the IC50 was more than 40 µM and the pIC50 was 4.4.

Take `COc1ccc(NC(=O)/C=C/c2ccc(C(C)(C)C)cc2)cc1`: the IC50 came out at 0.166 µM and the pIC50 stood at 6.78.

With `O=C(/C=C/c1cccc2ccccc12)Nc1ccc2c(c1)OCCO2`, the IC50 was determined as 0.643 µM and the pIC50 was found to be 6.19.

In the case of `COc1ccccc1NC(=O)/C=C/c1ccc(C(C)(C)C)cc1`, 0.859 µM corresponded to half-maximal inhibition (IC50) and the pIC50 is listed as 6.07.

(Values after ChEMBL document CHEMBL1138244, “Three-dimensional quantitative structure-activity relationships and activity predictions of human TRPV1 channel antagonists: comparative molecular field analysis and comparative molecular similarity index analysis of cinnamides” (J Med Chem, 2007).)
